Among the data in patent US20250388605A1, “HETEROBIFUNCTIONAL COMPOUNDS AND METHODS OF TREATING DISEASE” (Halda Therapeutics OpCo, Inc., priority 2022, published 2025) are GI50 values, retold here.

Test [1] concerns T-Rex 293 cell line SC3 cells having increased expression of androgen receptor protein due to exposure to doxycycline. Nature of the test: Cellular growth inhibition, T-Rex 293 SC3 cells with doxycycline (increased androgen receptor expression), CellTiter-Glo. The class given is cell-based. The settings on record: T-Rex 293 SC3 cells with 10 ng/mL doxycycline (increased androgen receptor expression), 72 hours, CellTiter-Glo 2.0. As for the experimental part: (§1) The following types of cells were prepared for this experiment: (i) a T-Rex 293 cell line having increased expression of androgen receptor protein due to exposure to doxycycline and (ii) a T-Rex 293 cell line lacking increased expression of androgen receptor protein. Ability of the test compounds to inhibit proliferation of the foregoing cell types was evaluated according to the procedures set forth below.
(§2) The doxycycline-inducible androgen receptor protein expressing cell line was established using the following protocol: T-Rex 293 cells were purchased from Invitrogen (Cat #R71007) and transfected using Lipofectamine 2000 with the wild-type androgen receptor protein sequence cloned into the pcDNA4/TO vector. Transfected cells were selected using 400 μg/mL Zeocin (Invitrogen Cat #R25001). Following selection, single clones were raised and maintained in Dulbecco's Modified Eagle Medium (DMEM) supplemented with 10% w/w Tetracycline-free fetal bovine serum (FBS) and 250 μg/mL Zeocin. Clones were analyzed for expression of androgen receptor protein in the presence and absence of 10 ng/mL doxycycline (Sigma Cat #D9891), and a single doxycycline-inducible clone (hereinafter “SC3”) was selected for use in downstream assays.
(§3) The SC3 cells were seeded on poly-D-lysine coated, black clear-bottom 384-well plates at 2500/well, in 25 μL Phenol Red Free Dulbecco's Modified Eagle Medium (DMEM) supplemented with 10% w/w charcoal-dextran treated fetal bovine serum (FBS) and 1% w/w pen-strep, with or without 10 ng/mL doxycycline. Pen-Strep is a commercially available mixture of penicillin G and streptomycin, which is used in mammalian cell culture media to prevent bacterial contamination. Phenol Red Free Dulbecco's Modified Eagle Medium (DMEM) supplemented with 10% w/w charcoal-dextran treated fetal bovine serum (FBS) and 1% w/w pen-strep, with or without 10 ng/mL doxycycline is herein referred to as Treatment Medium. Following seeding of cells in the plates, the plates were spun at 300×g for 30 seconds, then equilibrated to room temperature for 30 minutes, and then deposited in a humidified tissue culture incubator maintained at 37° C. with 5% CO2.
(§4) At 24 hours after seeding of the cells, dilutions of test compound were prepared in DMSO and dissolved in Treatment Medium, to achieve a final DMSO concentration of 0.5% w/w, thereby providing the Test Compound Solution. A 25 μL aliquot of the Test Compound Solution was added to cells in the well plates. An equal volume of a solution containing DMSO and Treatment Medium was used as a negative control. Following treatment of cells with Test Compound Solution or said equal volume of a solution containing DMSO and Treatment Medium, the plates were spun at 300×g for 30 seconds, and then left in an incubator for 72 hours.
(§5) At the end of the treatment duration, cell viability was quantified with CellTiter-Glo 2.0 reagent (Promega Cat #G9243). For this purpose, plates were equilibrated to room temperature for 30 minutes, and then 25 μL of CellTiter-Glo 2.0 reagent was added to cells in the plate wells. Plates were then agitated on a shaker for two minutes at 500 rpm and subsequently incubated at room temperature for 10 minutes. Following incubation, the plates were spun at 3000×g for 30 seconds, then sealed with an optical adhesive cover, and luminescence readings were measured with an EnVision Plate Reader.
(§6) Data was normalized using zero luminescence for baseline. A four-parameter non-linear regression curve fit was applied to dose-response data in GraphPad Prism data analysis software to determine the half-maximal growth inhibitory concentration (GI50) for each test compound.
(Cellular ATP, detected with luciferase, serves as a proxy for viable cell number.)

Test [2] concerns T-Rex 293 cell line SC3 cells lacking increased expression of androgen receptor protein. Nature of the test: Cellular growth inhibition, T-Rex 293 SC3 cells without doxycycline (no increased androgen receptor expression), CellTiter-Glo. The test is classed as cell-based. As to conditions: T-Rex 293 SC3 cells not exposed to doxycycline (no increased androgen receptor expression), 72 hours. On the procedure:
as §1, §2, §3, §4, §5, §6

Test [3] relates to VCaP cells. Kind of test: Cellular growth inhibition assay for VCaP cells, CellTiter-Glo. The class given is cell-based, human. As to conditions: Homo sapiens, 72 hours. On the procedure:
VCaP cells were purchased from American Type Cell Culture (ATCC Cat #CRL2876) and then seeded on poly-D-lysine coated, black clear-bottom 384-well plates at 5000/well in 25 μL Dulbecco's Modified Eagle Medium (DMEM) supplemented with 10% w/w Fetal bovine serum (FBS) and 1% w/w Pen-Strep. Pen-Strep is a commercially available mixture of penicillin G and streptomycin, which is used in mammalian cell culture media to prevent bacterial contamination. Dulbecco's Modified Eagle Medium (DMEM) supplemented with 10% w/w fetal bovine serum (FBS) and 1% w/w Pen-Strep is herein referred to as Treatment Medium. Following seeding of cells in the plates, the plates were spun at 300×g for 30 seconds, then equilibrated to room temperature for 30 minutes, and then deposited in a humidified tissue culture incubator maintained at 37° C. with 5% CO2.
as §4, §5, §6

Usually GI50 stands for the concentration at which growth is held to half of that of the control. Read a low GI50 as greater sensitivity of the cells. With `CCS(=O)(=O)Nc1ccc(Oc2cccc(OCCOCCOCCN(C)c3ncc(C(=O)N[C@H]4C(C)(C)[C@H](Oc5ccc(C#N)c(Cl)c5)C4(C)C)cn3)c2)c(-c2cn(C)c(=O)c3[nH]ccc23)c1` [Compound I-2], the GI50 is less than 500 nM in test [1] and 1500 to 3000 nM in test [2].

For `CCS(=O)(=O)Nc1ccc(Oc2cccc(OCCOCCOCCOCCOCCOCCOCCN(C)c3ncc(C(=O)N[C@H]4C(C)(C)[C@H](Oc5ccc(C#N)c(Cl)c5)C4(C)C)cn3)c2)c(-c2cn(C)c(=O)c3[nH]ccc23)c1` [Compound I-4], the GI50 in test [1] and in test [2] was less than 500 nM each time.

Regarding `CCS(=O)(=O)Nc1ccc(Oc2cccc(OCCCOCCCOC3CCN(c4ncc(C(=O)N[C@H]5C(C)(C)[C@H](Oc6ccc(C#N)c(Cl)c6)C5(C)C)cn4)CC3)c2)c(-c2cn(C)c(=O)c3[nH]ccc23)c1` [Compound I-12], the concentration for 50% growth inhibition (GI50) in test [3], in test [1] and in test [2] was less than 500 nM throughout.

Turning to `CCS(=O)(=O)Nc1ccc(Oc2cccc(OCCCOCCOC3CCN(c4ncc(C(=O)N[C@H]5C(C)(C)[C@H](Oc6ccc(C#N)c(Cl)c6)C5(C)C)cn4)CC3)c2)c(-c2cn(C)c(=O)c3[nH]ccc23)c1` [Compound I-14], the GI50 in test [3] was less than 500 nM; in test [1], less than 500 nM; in test [2], 500 to 1500 nM.

For `CCS(=O)(=O)Nc1ccc(Oc2cccc(OCCCCOC3CCN(c4ncc(C(=O)N[C@H]5C(C)(C)[C@H](Oc6ccc(C#N)c(Cl)c6)C5(C)C)cn4)CC3)c2)c(-c2cn(C)c(=O)c3[nH]ccc23)c1` [Compound I-15], the 50% growth inhibitory concentration (GI50) in test [3] is less than 500 nM; in test [1] it was less than 500 nM; in test [2], 500 to 1500 nM.

For the compound `CCS(=O)(=O)Nc1ccc(Oc2cccc(OCCOCCCOC3CCN(c4ncc(C(=O)N[C@H]5C(C)(C)[C@H](Oc6ccc(C#N)c(Cl)c6)C5(C)C)cn4)CC3)c2)c(-c2cn(C)c(=O)c3[nH]ccc23)c1` [Compound I-16], the GI50 in test [3], in test [1] and in test [2] was less than 500 nM each time.

As for `CCS(=O)(=O)Nc1ccc(Oc2cccc(OCCCOC3CCN(c4ncc(C(=O)N[C@H]5C(C)(C)[C@H](Oc6ccc(C#N)c(Cl)c6)C5(C)C)cn4)CC3)c2)c(-c2cn(C)c(=O)c3[nH]ccc23)c1` [Compound I-17], the GI50 in test [3], in test [1] and in test [2] was less than 500 nM each time.

In the case of `CCS(=O)(=O)Nc1ccc(Oc2cccc(CCCOC3CCN(c4ncc(C(=O)N[C@H]5C(C)(C)[C@H](Oc6ccc(C#N)c(Cl)c6)C5(C)C)cn4)CC3)c2)c(-c2cn(C)c(=O)c3[nH]ccc23)c1` [Compound I-20], the GI50 in test [3], in test [1] and in test [2] was less than 500 nM each time.

Turning to `CCS(=O)(=O)Nc1ccc(Oc2cccc(CCCCCOC3CCN(c4ncc(C(=O)N[C@H]5C(C)(C)[C@H](Oc6ccc(C#N)c(Cl)c6)C5(C)C)cn4)CC3)c2)c(-c2cn(C)c(=O)c3[nH]ccc23)c1` [Compound I-22], the GI50 in test [3], in test [1] and in test [2] was less than 500 nM each time.

For `CCS(=O)(=O)Nc1ccc(Oc2cccc(OCCC3CCN(c4ncc(C(=O)N[C@H]5C(C)(C)[C@H](Oc6ccc(C#N)c(Cl)c6)C5(C)C)cn4)CC3)c2)c(-c2cn(C)c(=O)c3[nH]ccc23)c1` [Compound I-26], the GI50 in test [3], in test [1] and in test [2] was less than 500 nM each time.

For the compound `CCS(=O)(=O)Nc1ccc(Oc2cccc(OCCCCC3CCN(c4ncc(C(=O)N[C@H]5C(C)(C)[C@H](Oc6ccc(C#N)c(Cl)c6)C5(C)C)cn4)CC3)c2)c(-c2cn(C)c(=O)c3[nH]ccc23)c1` [Compound I-28], the GI50 in test [3] was less than 500 nM; in test [1] it was less than 500 nM; in test [2], 500 to 1500 nM.

`CCS(=O)(=O)Nc1ccc(Oc2cccc(OCCN3CCN(CC4CCN(c5ncc(C(=O)N[C@H]6C(C)(C)[C@H](Oc7ccc(C#N)c(Cl)c7)C6(C)C)cn5)CC4)CC3)c2)c(-c2cn(C)c(=O)c3[nH]ccc23)c1` [Compound I-32]: the GI50 in test [3], in test [1] and in test [2] was less than 500 nM each time.

With `CCS(=O)(=O)Nc1ccc(Oc2cccc(OCCCN3CCN(CC4CCN(c5ncc(C(=O)N[C@H]6C(C)(C)[C@H](Oc7ccc(C#N)c(Cl)c7)C6(C)C)cn5)CC4)CC3)c2)c(-c2cn(C)c(=O)c3[nH]ccc23)c1` [Compound I-33], the GI50 in test [3], in test [1] and in test [2] was less than 500 nM in each case.

As for `CCS(=O)(=O)Nc1ccc(Oc2cccc(OCCCCN3CCN(CC4CCN(c5ncc(C(=O)N[C@H]6C(C)(C)[C@H](Oc7ccc(C#N)c(Cl)c7)C6(C)C)cn5)CC4)CC3)c2)c(-c2cn(C)c(=O)c3[nH]ccc23)c1` [Compound I-34], the GI50 in test [3], in test [1] and in test [2] was less than 500 nM in each case.

In the case of `CCS(=O)(=O)Nc1ccc(Oc2cccc(OC3CN(CC4CCN(c5ncc(C(=O)N[C@H]6C(C)(C)[C@H](Oc7ccc(C#N)c(Cl)c7)C6(C)C)cn5)CC4)C3)c2)c(-c2cn(C)c(=O)c3[nH]ccc23)c1` [Compound I-38], the GI50 in test [3], in test [1] and in test [2] was less than 500 nM throughout.

Take `CCS(=O)(=O)Nc1cnc(Oc2cccc(OCCOC3CCN(c4cnc(C(=O)N[C@H]5C(C)(C)[C@H](Oc6ccc(C#N)c(Cl)c6)C5(C)C)cn4)CC3)c2)c(-c2cn(C)c(=O)c3[nH]ccc23)c1` [Compound I-46]: the figures for the GI50 in test [3], in test [1] and in test [2] were less than 500 nM, less than 500 nM and greater than 3000 nM, respectively.

`Cn1cc(-c2cc(NS(C)(=O)=O)ccc2Oc2cccc(OCCOC3CCN(c4ncc(C(=O)N[C@H]5C(C)(C)[C@H](Oc6ccc(C#N)c(Cl)c6)C5(C)C)cn4)CC3)c2)c2cc[nH]c2c1=O` [Compound I-50, N-((1r, 3r)-3-(3-chloro-4-cyanophenoxy)-2,2,4,4-tetramethylcyclobutyl)-2-(4-(2-(3-(2-(6-methyl-7-oxo-6,7-dihydro-1H-pyrrolo[2,3-c]pyridin-4-yl)-4-(methylsulfonamido)phenoxy)phenoxy)ethoxy)piperidin-1-yl)pyrimidine-5-carboxamide]: the GI50 in test [3], in test [1] and in test [2] was less than 500 nM in each case.

For the compound `Cn1cc(-c2cc(CS(C)(=O)=O)ccc2Oc2cccc(OCCOC3CCN(c4ncc(C(=O)N[C@H]5C(C)(C)[C@H](Oc6ccc(C#N)c(Cl)c6)C5(C)C)cn4)CC3)c2)c2cc[nH]c2c1=O` [Compound I-53, N-((1r, 3r)-3-(3-chloro-4-cyanophenoxy)-2,2,4,4-tetramethylcyclobutyl)-2-(4-(2-(3-(2-(6-methyl-7-oxo-6,7-dihydro-1H-pyrrolo[2,3-c]pyridin-4-yl)-4-((methylsulfonyl)methyl)phenoxy)phenoxy)ethoxy)piperidin-1-yl)pyrimidine-5-carboxamide], the GI50 in test [3], in test [1] and in test [2] was less than 500 nM in each case.
